Columns and labels:
chickweed [1] = assay: Test Example 4: herbicidal effect by soil treatment (Table 19, symbol P); format: in vivo, common chickweed (Stellaria media)
Outline: (§1)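 Soil-surface application: an emulsion agent diluted with water to the predetermined dose is sprayed uniformly over seeds lying under roughly 1.5 cm of sterilized diluvial soil. Boxes stay in a greenhouse at 25° C. to 30° C. Three weeks later, each species is graded on previously defined criteria.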

lambsquarters [2] = assay: Test Example 5: herbicidal effect by foliage application, plastic box (Table 20, symbol O); format: in vivo, lambsquarters (Chenopodium album); details: foliage application, three weeks after application
Outline: (§2)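 Sow seeds spot-wise in sterilized diluvial soil; cover with ~1.5 cm soil. Grow 14 days in greenhouse, 25° C. to 30° C. Spray foliage with emulsion diluted to predetermined amount. Rate effect after 3 weeks.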

lambsquarters [3] = assay: Test Example 4: herbicidal effect by soil treatment (Table 19, symbol O); format: in vivo, lambsquarters (Chenopodium album)
Outline: as §1

wild oat [4] = assay: Test Example 5: herbicidal effect by foliage application, plastic box (Table 20, symbol I); format: in vivo, wild oat (Avena fatua); details: foliage application, three weeks after application
Outline: as §2

barnyard grass [5] = assay: Test Example 3: herbicidal effect by foliage application, Wagner pot (Table 18, symbol H); format: in vivo, barnyard grass (Echinochloa crus-galli); details: 320 g/ha
Outline: (§3)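 Plants were sown in alluvial soil held under 0.1–0.5 cm standing water and grown 14 days in a greenhouse at 25–30 °C. An emulsifiable formulation, water-diluted to the set dose, was then sprayed onto the foliage, and effects were scored three weeks later using previously defined criteria.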

redroot pigweed [6] = assay: Test Example 4: herbicidal effect by soil treatment (Table 19, symbol N); format: in vivo, redroot pigweed (Amaranthus retroflexus)
Outline: as §1

Japanese bulrush = assay: Test Example 1: herbicidal activity, application before weed generation under submerged conditions (Table 16, symbol B); format: in vivo, Japanese bulrush (Schoenoplectus juncoides); details: 320 g/ha applied herbicide
Outline: (§4)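 Alluvial soil was flooded to 4 cm depth, weed seeds were sown mixed and 2.5-leaf rice seedlings were transplanted. On sowing day, the compound's emulsion, diluted in water to a set dose, was applied to the water surface. Plants grew at 25–30 °C and were scored 0–5 after three weeks.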

green foxtail [7] = assay: Test Example 4: herbicidal effect by soil treatment (Table 19, symbol G); format: in vivo, green foxtail (Setaria viridis)
Outline: as §1

oval-leafed pondweed = assay: Test Example 1: herbicidal activity, application before weed generation under submerged conditions (Table 16, symbol C); format: in vivo, oval-leafed pondweed (Monochoria vaginalis); details: 320 g/ha applied herbicide
Outline: as §4

velvetleaf [8] = assay: Test Example 4: herbicidal effect by soil treatment (Table 19, symbol M); format: in vivo, velvetleaf (Abutilon theophrasti)
Outline: as §1

chickweed [9] = assay: Test Example 5: herbicidal effect by foliage application, plastic box (Table 20, symbol P); format: in vivo, common chickweed (Stellaria media); details: foliage application, three weeks after application
Outline: as §2

rice flat sedge = assay: Test Example 3: herbicidal effect by foliage application, Wagner pot (Table 18, symbol E); format: in vivo, rice flat sedge (Cyperus iria); details: 320 g/ha
Outline: as §3

blackgrass [10] = assay: Test Example 5: herbicidal effect by foliage application, plastic box (Table 20, symbol J); format: in vivo, blackgrass (Alopecurus myosuroides); details: foliage application, three weeks after application
Outline: as §2

redroot pigweed [11] = assay: Test Example 5: herbicidal effect by foliage application, plastic box (Table 20, symbol N); format: in vivo, redroot pigweed (Amaranthus retroflexus); details: foliage application, three weeks after application
Outline: as §2

wild oat [12] = assay: Test Example 4: herbicidal effect by soil treatment (Table 19, symbol I); format: in vivo, wild oat (Avena fatua)
Outline: as §1

windgrass [13] = assay: Test Example 5: herbicidal effect by foliage application, plastic box (Table 20, symbol L); format: in vivo, windgrass (Apera spica-venti); details: foliage application, three weeks after application
Outline: as §2

velvetleaf [14] = assay: Test Example 5: herbicidal effect by foliage application, plastic box (Table 20, symbol M); format: in vivo, velvetleaf (Abutilon theophrasti); details: foliage application, three weeks after application
Outline: as §2

barnyard grass [15] = assay: Test Example 4: herbicidal effect by soil treatment (Table 19, symbol H); format: in vivo, barnyard grass (Echinochloa crus-galli)
Outline: as §1

Italian ryegrass [16] = assay: Test Example 5: herbicidal effect by foliage application, plastic box (Table 20, symbol K); format: in vivo, Italian ryegrass (Lolium multiflorum); details: foliage application, three weeks after application
Outline: as §2

windgrass [17] = assay: Test Example 4: herbicidal effect by soil treatment (Table 19, symbol L); format: in vivo, windgrass (Apera spica-venti)
Outline: as §1

southern crabgrass [18] = assay: Test Example 5: herbicidal effect by foliage application, plastic box (Table 20, symbol F); format: in vivo, southern crabgrass (Digitaria ciliaris); details: foliage application, three weeks after application
Outline: as §2

green foxtail [19] = assay: Test Example 5: herbicidal effect by foliage application, plastic box (Table 20, symbol G); format: in vivo, green foxtail (Setaria viridis); details: foliage application, three weeks after application
Outline: as §2

persian speedwell [20] = assay: Test Example 4: herbicidal effect by soil treatment (Table 19, symbol R); format: in vivo, Persian speedwell (Veronica persica)
Outline: as §1

southern crabgrass [21] = assay: Test Example 4: herbicidal effect by soil treatment (Table 19, symbol F); format: in vivo, southern crabgrass (Digitaria ciliaris)
Outline: as §1

Italian ryegrass [22] = assay: Test Example 4: herbicidal effect by soil treatment (Table 19, symbol K); format: in vivo, Italian ryegrass (Lolium multiflorum)
Outline: as §1

barnyard grass [23] = assay: Test Example 5: herbicidal effect by foliage application, plastic box (Table 20, symbol H); format: in vivo, barnyard grass (Echinochloa crus-galli); details: foliage application, three weeks after application
Outline: as §2

blackgrass [24] = assay: Test Example 4: herbicidal effect by soil treatment (Table 19, symbol J); format: in vivo, blackgrass (Alopecurus myosuroides)
Outline: as §1

late watergrass = assay: Test Example 1: herbicidal activity, application before weed generation under submerged conditions (Table 16, symbol A); format: in vivo, late watergrass (Echinochloa oryzicola); details: 320 g/ha applied herbicide
Outline: as §4

Chinese sprangletop = assay: Test Example 3: herbicidal effect by foliage application, Wagner pot (Table 18, symbol D); format: in vivo, chinese sprangletop (Leptochloa chinensis); details: 320 g/ha
Outline: as §3

persian speedwell [25] = assay: Test Example 5: herbicidal effect by foliage application, plastic box (Table 20, symbol R); format: in vivo, Persian speedwell (Veronica persica); details: foliage application, three weeks after application
Outline: as §2

[26] = amount of applied herbicide 320 g/ha

Compound: CCCC(=O)Oc1c(C)nn(C)c(=O)c1-c1c(-c2ccccc2OCC)sc2ccccc12 [1-012]
- herbicidal effect rating, P: chickweed (chickweed [1]; [26]): 0 (Herbicidal rate of 5% or less (almost no effect))
- herbicidal effect grade, O: lambsquarters (lambsquarters [2]; 320 g/ha): 2 (Herbicidal rate of 20% or more and less than 40%)
- herbicidal effect rating, O: lambsquarters (lambsquarters [3]; [26]): 0 (Herbicidal rate of 5% or less (almost no effect))
- herbicidal effect grade, I: wild oat (wild oat [4]; 320 g/ha): 4 (Herbicidal rate of 70% or more and less than 90%)
- herbicidal effect on H (barnyard grass), rating 0-5 (barnyard grass [5]): 5 (Herbicidal rate of 90% or more (almost completely withered))
- herbicidal effect rating, N: redroot pigweed (redroot pigweed [6]; [26]): 0 (Herbicidal rate of 5% or less (almost no effect))
- Herbicidal effect on B: Japanese bulrush (grade 0-5) (Japanese bulrush): 1 (Herbicidal rate of 5% or more and less than 20%)
- herbicidal effect rating, G: green foxtail (green foxtail [7]; [26]): 5 (Herbicidal rate of 90% or more (almost completely withered))
- Herbicidal effect on C: oval-leafed pondweed (grade 0-5) (oval-leafed pondweed): 3 (Herbicidal rate of 40% or more and less than 70%)
- herbicidal effect rating, M: velvetleaf (velvetleaf [8]; [26]): 0 (Herbicidal rate of 5% or less (almost no effect))
- herbicidal effect grade, P: chickweed (chickweed [9]; 320 g/ha): 5 (Herbicidal rate of 90% or more (almost completely withered))
- herbicidal effect on E (rice flat sedge), rating 0-5 (rice flat sedge): 5 (Herbicidal rate of 90% or more (almost completely withered))
- herbicidal effect grade, J: blackgrass (blackgrass [10]; 320 g/ha): 4 (Herbicidal rate of 70% or more and less than 90%)
- herbicidal effect grade, N: redroot pigweed (redroot pigweed [11]; 320 g/ha): 3 (Herbicidal rate of 40% or more and less than 70%)
- herbicidal effect rating, I: wild oat (wild oat [12]; [26]): 1 (Herbicidal rate of 5% or more and less than 20%)
- herbicidal effect grade, L: windgrass (windgrass [13]; 320 g/ha): 4 (Herbicidal rate of 70% or more and less than 90%)
- herbicidal effect grade, M: velvetleaf (velvetleaf [14]; 320 g/ha): 3 (Herbicidal rate of 40% or more and less than 70%)
- herbicidal effect rating, H: barnyard grass (barnyard grass [15]; [26]): 5 (Herbicidal rate of 90% or more (almost completely withered))
- herbicidal effect grade, K: Italian ryegrass (Italian ryegrass [16]; 320 g/ha): 3 (Herbicidal rate of 40% or more and less than 70%)
- herbicidal effect rating, L: windgrass (windgrass [17]; [26]): 3 (Herbicidal rate of 40% or more and less than 70%)
- herbicidal effect grade, F: southern crabgrass (southern crabgrass [18]; 320 g/ha): 5 (Herbicidal rate of 90% or more (almost completely withered))
- herbicidal effect grade, G: green foxtail (green foxtail [19]; 320 g/ha): 5 (Herbicidal rate of 90% or more (almost completely withered))
- herbicidal effect rating, R: persian speedwell (persian speedwell [20]; [26]): 0 (Herbicidal rate of 5% or less (almost no effect))
- herbicidal effect rating, F: southern crabgrass (southern crabgrass [21]; [26]): 4 (Herbicidal rate of 70% or more and less than 90%)
- herbicidal effect rating, K: Italian ryegrass (Italian ryegrass [22]; [26]): 0 (Herbicidal rate of 5% or less (almost no effect))
- herbicidal effect grade, H: barnyard grass (barnyard grass [23]; 320 g/ha): 5 (Herbicidal rate of 90% or more (almost completely withered))
- herbicidal effect rating, J: blackgrass (blackgrass [24]; [26]): 5 (Herbicidal rate of 90% or more (almost completely withered))
- Herbicidal effect on A: late watergrass (grade 0-5) (late watergrass): 3 (Herbicidal rate of 40% or more and less than 70%)
- herbicidal effect on D (Chinese sprangletop), rating 0-5 (Chinese sprangletop): 0 (Herbicidal rate of 5% or less (almost no effect))
- herbicidal effect grade, R: persian speedwell (persian speedwell [25]; 320 g/ha): 5 (Herbicidal rate of 90% or more (almost completely withered))

Compound: Cc1nn(C)c(=O)c(-c2c(-c3ccc(OS(C)(=O)=O)cc3)sc3ccccc23)c1O [1-146]
- P: chickweed, herbicidal effect rating (chickweed [1]; AAH 320 g/ha): 4 (Herbicidal rate of 70% or more and less than 90%)
- O: lambsquarters, herbicidal effect (lambsquarters [2]; AAH 320 g/ha): 3 (Herbicidal rate of 40% or more and less than 70%)
- O: lambsquarters, herbicidal effect rating (lambsquarters [3]; AAH 320 g/ha): 5 (Herbicidal rate of 90% or more (almost completely withered))
- I: wild oat, herbicidal effect (wild oat [4]; AAH 320 g/ha): 0 (Herbicidal rate of 5% or less (almost no effect))
- herbicidal effect on H (barnyard grass), rating 0-5 (barnyard grass [5]): 5 (Herbicidal rate of 90% or more (almost completely withered))
- N: redroot pigweed, herbicidal effect rating (redroot pigweed [6]; AAH 320 g/ha): 5 (Herbicidal rate of 90% or more (almost completely withered))
- Herbicidal effect on B: Japanese bulrush (grade 0-5) (Japanese bulrush): 0 (Herbicidal rate of 5% or less (almost no effect))
- G: green foxtail, herbicidal effect rating (green foxtail [7]; AAH 320 g/ha): 5 (Herbicidal rate of 90% or more (almost completely withered))
- Herbicidal effect on C: oval-leafed pondweed (grade 0-5) (oval-leafed pondweed): 0 (Herbicidal rate of 5% or less (almost no effect))
- M: velvetleaf, herbicidal effect rating (velvetleaf [8]; AAH 320 g/ha): 5 (Herbicidal rate of 90% or more (almost completely withered))
- P: chickweed, herbicidal effect (chickweed [9]; AAH 320 g/ha): 5 (Herbicidal rate of 90% or more (almost completely withered))
- J: blackgrass, herbicidal effect (blackgrass [10]; AAH 320 g/ha): 1 (Herbicidal rate of 5% or more and less than 20%)
- N: redroot pigweed, herbicidal effect (redroot pigweed [11]; AAH 320 g/ha): 3 (Herbicidal rate of 40% or more and less than 70%)
- I: wild oat, herbicidal effect rating (wild oat [12]; AAH 320 g/ha): 0 (Herbicidal rate of 5% or less (almost no effect))
- L: windgrass, herbicidal effect (windgrass [13]; AAH 320 g/ha): 0 (Herbicidal rate of 5% or less (almost no effect))
- M: velvetleaf, herbicidal effect (velvetleaf [14]; AAH 320 g/ha): 4 (Herbicidal rate of 70% or more and less than 90%)
- H: barnyard grass, herbicidal effect rating (barnyard grass [15]; AAH 320 g/ha): 5 (Herbicidal rate of 90% or more (almost completely withered))
- K: Italian ryegrass, herbicidal effect (Italian ryegrass [16]; AAH 320 g/ha): 5 (Herbicidal rate of 90% or more (almost completely withered))
- L: windgrass, herbicidal effect rating (windgrass [17]; AAH 320 g/ha): 0 (Herbicidal rate of 5% or less (almost no effect))
- F: southern crabgrass, herbicidal effect (southern crabgrass [18]; AAH 320 g/ha): 4 (Herbicidal rate of 70% or more and less than 90%)
- G: green foxtail, herbicidal effect (green foxtail [19]; AAH 320 g/ha): 5 (Herbicidal rate of 90% or more (almost completely withered))
- R: persian speedwell, herbicidal effect rating (persian speedwell [20]; AAH 320 g/ha): 5 (Herbicidal rate of 90% or more (almost completely withered))
- F: southern crabgrass, herbicidal effect rating (southern crabgrass [21]; AAH 320 g/ha): 4 (Herbicidal rate of 70% or more and less than 90%)
- K: Italian ryegrass, herbicidal effect rating (Italian ryegrass [22]; AAH 320 g/ha): 4 (Herbicidal rate of 70% or more and less than 90%)
- H: barnyard grass, herbicidal effect (barnyard grass [23]; AAH 320 g/ha): 5 (Herbicidal rate of 90% or more (almost completely withered))
- J: blackgrass, herbicidal effect rating (blackgrass [24]; AAH 320 g/ha): 0 (Herbicidal rate of 5% or less (almost no effect))
- Herbicidal effect on A: late watergrass (grade 0-5) (late watergrass): 3 (Herbicidal rate of 40% or more and less than 70%)
- herbicidal effect on D (Chinese sprangletop), rating 0-5 (Chinese sprangletop): 2 (Herbicidal rate of 20% or more and less than 40%)
- R: persian speedwell, herbicidal effect (persian speedwell [25]; AAH 320 g/ha): 5 (Herbicidal rate of 90% or more (almost completely withered))

Source: patent US20230085307A1, “PYRIDAZINONE COMPOUND AND HERBICIDE” (NISSAN CHEMICAL CORPORATION, priority 2019, published 2023)
